Source: ChEMBL document CHEMBL1201861, “Genomics of Drug Sensitity in Cancer screening data, Wellcome Trust Sanger Institute”

How the values were obtained:
COLO-741 = assay: cells; format: functional, cell-based, Homo sapiens
Description: SANGER: Inhibition of human COLO-741 cell growth in a cell viability assay.

COR-L279 = assay: SANGER: Inhibition of human COR-L279 cell growth in a cell viability assay.; format: functional, cell-based
ChaGo-K-1 = assay: cells; format: functional, cell-based, Homo sapiens;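 note: growth inhibition of ChaGo-K-1 cells, read out with a cell viability assay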
Description: SANGER: Inhibition of human ChaGo-K-1 cell growth in a cell viability assay.

Daoy = assay: cells; format: functional, cell-based, Homo sapiens;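 note: daoy cell growth inhibition, read out as cell viability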
Description: SANGER: Inhibition of human Daoy cell growth in a cell viability assay.

G-361 = assay: cells; format: functional, cell-based, Homo sapiens
HCC1806 = assay: cells; format: functional, cell-based, Homo sapiens;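 note: growth inhibition of the cancer cell line, determined with a cell viability assay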
Description: SANGER: Inhibition of human HCC1806 cell growth in a cell viability assay.

HCT-116 = assay: cells; format: functional, cell-based, Homo sapiens
Description: SANGER: Inhibition of human HCT-116 cell growth in a cell viability assay.

HN = assay: cells; format: functional, cell-based, Homo sapiens
Description: SANGER: Inhibition of human HN cell growth in a cell viability assay.

HPAF-II = assay: cells; format: functional, cell-based, Homo sapiens;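 note: growth inhibition of HPAF-II cells, read out with a cell viability assay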
Description: SANGER: Inhibition of human HPAF-II cell growth in a cell viability assay.

Hs-578T = assay: cells; format: functional, cell-based, Homo sapiens
Description: SANGER: Inhibition of human Hs-578-T cell growth in a cell viability assay.

JIYOYE = assay: cells; format: functional, cell-based, Homo sapiens
Description: SANGER: Inhibition of human JiyoyeP-2003 cell growth in a cell viability assay.

KOSC-2 = assay: cells; format: functional, cell-based, Homo sapiens;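 note: growth inhibition of KOSC-2 cells, read out by a cell viability assay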
Description: SANGER: Inhibition of human KOSC-2 cell growth in a cell viability assay.

KYSE-180 = assay: cells; format: functional, cell-based, Homo sapiens;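 note: growth inhibition of KYSE-180 cells, read out with a cell viability assay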
Description: SANGER: Inhibition of human KYSE-180 cell growth in a cell viability assay.

KYSE-510 = assay: cells; format: functional, cell-based, Homo sapiens;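 note: cell viability readout used to measure how strongly growth of the cell line is suppressed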
Description: SANGER: Inhibition of human KYSE-510 cell growth in a cell viability assay.

KYSE-520 cell line = assay: cells; format: functional, cell-based, Homo sapiens;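 note: growth inhibition of human KYSE-520 cells, read out with a viability assay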
Description: SANGER: Inhibition of human KYSE-520 cell growth in a cell viability assay.

KYSE-70 cell line = assay: cells; format: functional, cell-based, Homo sapiens;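 note: cell viability assay read-out, with IC50 expressing suppression of KYSE-70 cell growth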
Description: SANGER: Inhibition of human KYSE-70 cell growth in a cell viability assay.

LC4-1 = assay: cells; format: functional, cell-based, Homo sapiens;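 note: growth inhibition of LC4-1 cells, read out with a cell viability assay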
Description: SANGER: Inhibition of human LC4-1 cell growth in a cell viability assay.

LP-1 = assay: cells; format: functional, cell-based, Homo sapiens;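 note: growth inhibition of human LP-1 cells, with the read-out taken from a cell viability assay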
Description: SANGER: Inhibition of human LP-1 cell growth in a cell viability assay.

M059J = assay: cells; format: functional, cell-based, Homo sapiens;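 note: growth inhibition of M059J cells, read out with a cell viability assay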
Description: SANGER: Inhibition of human M059J cell growth in a cell viability assay.

MEL-HO = assay: cells; format: functional, cell-based, Homo sapiens
Description: SANGER: Inhibition of human MEL-HO cell growth in a cell viability assay.

NB1 = assay: cells; format: functional, cell-based, Homo sapiens;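 note: reduction of NB1 cell proliferation, read out with a viability assay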
Description: SANGER: Inhibition of human NB1 cell growth in a cell viability assay.

NCI-H1651 = assay: cells; format: functional, cell-based, Homo sapiens;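 note: Read-out is a cell viability assay, with IC50 expressing inhibition of NCI-H1651 cell growth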
Description: SANGER: Inhibition of human NCI-H1651 cell growth in a cell viability assay.

NCI-H1755 = assay: cells; format: functional, cell-based, Homo sapiens;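 note: cell viability readout used to measure growth inhibition of NCI-H1755 cells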
Description: SANGER: Inhibition of human NCI-H1755 cell growth in a cell viability assay.

NCI-H2196 = assay: cells; format: functional, cell-based, Homo sapiens;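 note: cell viability assay used as the readout of growth inhibition in NCI-H2196 cells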
Description: SANGER: Inhibition of human NCI-H2196 cell growth in a cell viability assay.

NCI-H522 = assay: cells; format: functional, cell-based, Homo sapiens;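 note: cell viability assay measuring growth inhibition of human NCI-H522 cells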
Description: SANGER: Inhibition of human NCI-H522 cell growth in a cell viability assay.

NCI-H719 = assay: cells; format: functional, cell-based, Homo sapiens;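 note: growth inhibition of the cultured cell line, read out with a viability assay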
Description: SANGER: Inhibition of human NCI-H719 cell growth in a cell viability assay.

NCI-H748 = assay: cells; format: functional, cell-based, Homo sapiens;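 note: growth inhibition of NCI-H748 cells, measured by a cell viability assay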
Description: SANGER: Inhibition of human NCI-H748 cell growth in a cell viability assay.

OVCAR-8 = assay: cells; format: functional, cell-based, Homo sapiens;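 note: growth inhibition of human OVCAR-8 cells, read out by a cell viability assay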
Description: SANGER: Inhibition of human OVCAR-8 cell growth in a cell viability assay.

PFSK-1 = assay: cells; format: functional, cell-based, Homo sapiens;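 note: cell viability assay measuring how strongly compounds suppress growth of human PFSK-1 cells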
Description: SANGER: Inhibition of human PFSK-1 cell growth in a cell viability assay.

RL = assay: cells; format: functional, cell-based, Homo sapiens
Description: SANGER: Inhibition of human RL cell growth in a cell viability assay.

S-117 = assay: cells; format: functional, cell-based, Homo sapiens
Description: SANGER: Inhibition of human S-117 cell growth in a cell viability assay.

SCC-3 = assay: cells; format: functional, cell-based, Homo sapiens;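 note: cell viability assay measuring inhibition of SCC-3 cell growth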
Description: SANGER: Inhibition of human SCC-3 cell growth in a cell viability assay.

SCLC-21H = assay: cells; format: functional, cell-based, Homo sapiens;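 note: growth inhibition of cultured human SCLC-21H cells, read out with a cell viability assay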
Description: SANGER: Inhibition of human SCLC-21H cell growth in a cell viability assay.

SF-295 = assay: cells; format: functional, cell-based, Homo sapiens;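 note: growth inhibition of SF-295 cells, read out with a cell viability assay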
Description: SANGER: Inhibition of human SF295 cell growth in a cell viability assay.

SK-MEL-28 = assay: cells; format: functional, cell-based, Homo sapiens;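 note: growth inhibition of human SK-MEL-28 cells, read out with a cell viability assay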
Description: SANGER: Inhibition of human SK-MEL-28 cell growth in a cell viability assay.

SK-OV-3 = assay: cells; format: functional, cell-based, Homo sapiens;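 note: growth inhibition of SK-OV-3 human cells, read out with a cell viability assay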
Description: SANGER: Inhibition of human SK-OV-3 cell growth in a cell viability assay.

SNU-423 = assay: cells; format: functional, cell-based, Homo sapiens
Description: SANGER: Inhibition of human SNU-423 cell growth in a cell viability assay.

SNU-449 = assay: cells; format: functional, cell-based, Homo sapiens
Description: SANGER: Inhibition of human SNU-449 cell growth in a cell viability assay.

SUP-T1 = assay: cells; format: functional, cell-based, Homo sapiens;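 note: growth inhibition of human SUP-T1 cells, read out as cell viability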
Description: SANGER: Inhibition of human SUP-T1 cell growth in a cell viability assay.

SW626 = assay: cells; format: functional, cell-based, Homo sapiens;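 note: growth inhibition of SW626 cells, measured with a cell viability assay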
Description: SANGER: Inhibition of human SW626 cell growth in a cell viability assay.

TCC-SUP = assay: cells; format: functional, cell-based, Homo sapiens;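 note: growth inhibition of TCC-SUP cells, read out with a cell viability assay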
Description: SANGER: Inhibition of human TCCSUP cell growth in a cell viability assay.

647-V = assay: cells; format: functional, cell-based, Homo sapiens;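 note: growth inhibition of 647-V cells, read out with a cell viability assay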
Description: SANGER: Inhibition of human 647-V cell growth in a cell viability assay.

ARH-77 = assay: cells; format: functional, cell-based, Homo sapiens;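 note: growth inhibition of ARH-77 cells, read out by a cell viability assay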
Description: SANGER: Inhibition of human ARH-77 cell growth in a cell viability assay.

THP-1 = assay: cells; format: functional, cell-based, Homo sapiens;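 note: growth inhibition of THP-1 cells, read out via a cell viability assay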
Description: SANGER: Inhibition of human THP-1 cell growth in a cell viability assay.

U-118-MG = assay: cells; format: functional, cell-based, Homo sapiens
Description: SANGER: Inhibition of human U-118-MG cell growth in a cell viability assay.

YKG-1 = assay: cells; format: functional, cell-based, Homo sapiens;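 note: cell growth inhibition, read out with a viability assay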
Description: SANGER: Inhibition of human YKG-1 cell growth in a cell viability assay.

CHP-126 = assay: cells; format: functional, cell-based, Homo sapiens
Description: SANGER: Inhibition of human CHP-126 cell growth in a cell viability assay.

COLO-678 = assay: cells; format: functional, cell-based, Homo sapiens
Description: SANGER: Inhibition of human COLO-678 cell growth in a cell viability assay.

Cc1cc([N+](=O)[O-])ccc1NS(=O)(=O)c1cc(Cl)ccc1Cl
IC50 (COLO-741; Homo sapiens, COLO-741): 4.49 µM | IC50 (COR-L279; Homo sapiens, COR-L279): > 32 µM | IC50 (ChaGo-K-1; Homo sapiens, ChaGo-K-1): 4.12 µM | IC50 (Daoy; Homo sapiens, Daoy): 4.14 µM | IC50 (G-361; Homo sapiens, G-361): 1770 nM | IC50 (HCC1806; Homo sapiens, HCC1806): 20.5 µM | IC50 (HCT-116; Homo sapiens, HCT-116): 3.72 µM | IC50 (HN; Homo sapiens, HN): > 32 µM | IC50 (HPAF-II; Homo sapiens, HPAF-II): 10.7 µM | IC50 (Hs-578T; Homo sapiens, Hs-578T): 11.5 µM | IC50 (JIYOYE; Homo sapiens, JIYOYE): 6.6 µM | IC50 (KOSC-2; Homo sapiens, KOSC-2): > 32 µM | IC50 (KYSE-180; Homo sapiens, KYSE-180): 3.13 µM | IC50 (KYSE-510; Homo sapiens, KYSE-510): 4.84 µM | IC50 (KYSE-520 cell line; Homo sapiens, KYSE-520): 27.6 µM | IC50 (KYSE-70 cell line; Homo sapiens, KYSE-70): 812 nM | IC50 (LC4-1; Homo sapiens, LC4-1): 13.7 µM | IC50 (LP-1; Homo sapiens, LP-1): 10.6 µM | IC50 (M059J; Homo sapiens, M059J): 5.94 µM | IC50 (MEL-HO; Homo sapiens, MEL-HO): 6.53 µM | IC50 (NB1; Homo sapiens, NB1): 8.38 µM | IC50 (NCI-H1651; Homo sapiens, NCI-H1651): 3.94 µM | IC50 (NCI-H1755; Homo sapiens, NCI-H1755): 15.8 µM | IC50 (NCI-H2196; Homo sapiens, NCI-H2196): > 32 µM | IC50 (NCI-H522; Homo sapiens, NCI-H522): 1400 nM | IC50 (NCI-H719; Homo sapiens, NCI-H719): > 32 µM | IC50 (NCI-H748; Homo sapiens, NCI-H748): > 32 µM | IC50 (OVCAR-8; Homo sapiens, OVCAR-8): 4.26 µM | IC50 (PFSK-1; Homo sapiens, PFSK-1): 12.4 µM | IC50 (RL; Homo sapiens, RL): > 0.032 mM | IC50 (S-117; Homo sapiens, S-117): < 0.125 µM | IC50 (SCC-3; Homo sapiens, SCC-3): > 32 µM | IC50 (SCLC-21H; Homo sapiens, SCLC-21H): 4.84 µM | IC50 (SF-295; Homo sapiens, SF-295): 2340 nM | IC50 (SK-MEL-28; Homo sapiens, SK-MEL-28): 0.355 µM | IC50 (SK-OV-3; Homo sapiens, SK-OV-3): 9.13 µM | IC50 (SNU-423; Homo sapiens, SNU-423): 7.17 µM | IC50 (SNU-449; Homo sapiens, SNU-449): 5.94 µM | IC50 (SUP-T1; Homo sapiens, SUP-T1): 5.41 µM | IC50 (SW626; Homo sapiens, SW626): 3.12 µM | IC50 (TCC-SUP; Homo sapiens, TCC-SUP): 4.81 µM | IC50 (647-V; Homo sapiens, 647-V): 3.09 µM | IC50 (ARH-77; Homo sapiens, ARH-77): > 32 µM | IC50 (THP-1; Homo sapiens, THP-1): 19.6 µM | IC50 (U-118-MG; Homo sapiens, U-118-MG): > 32 µM | IC50 (YKG-1; Homo sapiens, YKG-1): 5.66 µM | IC50 (CHP-126; Homo sapiens, CHP-126): > 32 µM | IC50 (COLO-678; Homo sapiens, COLO-678): 10.9 µM

Oc1ccc2ccccc2c1SSc1c(O)ccc2ccccc12
IC50 (COLO-741; Homo sapiens, COLO-741): 18 µM | IC50 (COR-L279; Homo sapiens, COR-L279): > 32 µM | IC50 (ChaGo-K-1; Homo sapiens, ChaGo-K-1): > 32 µM | IC50 (Daoy; Homo sapiens, Daoy): 3.25 µM | IC50 (G-361; Homo sapiens, G-361): > 32000 nM | IC50 (HCC1806; Homo sapiens, HCC1806): > 32 µM | IC50 (HCT-116; Homo sapiens, HCT-116): > 32 µM | IC50 (HN; Homo sapiens, HN): > 32 µM | IC50 (HPAF-II; Homo sapiens, HPAF-II): > 32 µM | IC50 (Hs-578T; Homo sapiens, Hs-578T): > 32 µM | IC50 (JIYOYE; Homo sapiens, JIYOYE): 7.26 µM | IC50 (KOSC-2; Homo sapiens, KOSC-2): > 32 µM | IC50 (KYSE-180; Homo sapiens, KYSE-180): > 32 µM | IC50 (KYSE-510; Homo sapiens, KYSE-510): > 32 µM | IC50 (KYSE-520 cell line; Homo sapiens, KYSE-520): > 32 µM | IC50 (KYSE-70 cell line; Homo sapiens, KYSE-70): > 32000 nM | IC50 (LC4-1; Homo sapiens, LC4-1): > 32 µM | IC50 (LP-1; Homo sapiens, LP-1): 30.5 µM | IC50 (M059J; Homo sapiens, M059J): > 32 µM | IC50 (MEL-HO; Homo sapiens, MEL-HO): > 32 µM | IC50 (NB1; Homo sapiens, NB1): 21.9 µM | IC50 (NCI-H1651; Homo sapiens, NCI-H1651): > 32 µM | IC50 (NCI-H1755; Homo sapiens, NCI-H1755): > 32 µM | IC50 (NCI-H2196; Homo sapiens, NCI-H2196): > 32 µM | IC50 (NCI-H522; Homo sapiens, NCI-H522): > 32000 nM | IC50 (NCI-H719; Homo sapiens, NCI-H719): 12.9 µM | IC50 (NCI-H748; Homo sapiens, NCI-H748): > 32 µM | IC50 (OVCAR-8; Homo sapiens, OVCAR-8): > 32 µM | IC50 (PFSK-1; Homo sapiens, PFSK-1): > 32 µM | IC50 (RL; Homo sapiens, RL): > 0.032 mM | IC50 (S-117; Homo sapiens, S-117): 31.4 µM | IC50 (SCC-3; Homo sapiens, SCC-3): > 32 µM | IC50 (SCLC-21H; Homo sapiens, SCLC-21H): > 32 µM | IC50 (SF-295; Homo sapiens, SF-295): > 32000 nM | IC50 (SK-MEL-28; Homo sapiens, SK-MEL-28): > 32 µM | IC50 (SK-OV-3; Homo sapiens, SK-OV-3): > 32 µM | IC50 (SNU-423; Homo sapiens, SNU-423): > 32 µM | IC50 (SNU-449; Homo sapiens, SNU-449): > 32 µM | IC50 (SUP-T1; Homo sapiens, SUP-T1): > 32 µM | IC50 (SW626; Homo sapiens, SW626): > 32 µM | IC50 (TCC-SUP; Homo sapiens, TCC-SUP): > 32 µM | IC50 (647-V; Homo sapiens, 647-V): > 32 µM | IC50 (ARH-77; Homo sapiens, ARH-77): > 32 µM | IC50 (THP-1; Homo sapiens, THP-1): > 32 µM | IC50 (U-118-MG; Homo sapiens, U-118-MG): > 32 µM | IC50 (YKG-1; Homo sapiens, YKG-1): > 32 µM | IC50 (CHP-126; Homo sapiens, CHP-126): 6.74 µM | IC50 (COLO-678; Homo sapiens, COLO-678): > 32 µM

BLEOMYCIN
IC50 (COLO-741; colo-741): 16.4 µM | IC50 (COR-L279; cor-l279): 25.4 µM | IC50 (ChaGo-K-1; chago-k-1): 16.4 µM | IC50 (Daoy; daoy): 0.083 µM | IC50 (G-361; g-361): 88.3 nM | IC50 (HCC1806; hcc1806): 0.00854 µM | IC50 (HCT-116; hct-116): 2.88 µM | IC50 (HN; hn): 29.1 µM | IC50 (HPAF-II; hpaf-ii): 233 µM | IC50 (Hs-578T; hs-578-t): 344 µM | IC50 (JIYOYE; jiyoye): 3.38 µM | IC50 (KOSC-2; kosc-2): 319 µM | IC50 (KYSE-180; kyse-180): 3.8 µM | IC50 (KYSE-510; kyse-510): 1.86 µM | IC50 (KYSE-520 cell line; kyse-520): 6.79 µM | IC50 (KYSE-70 cell line; kyse-70): 1380 nM | IC50 (LC4-1; lc4-1): 11.2 µM | IC50 (LP-1; lp-1): 307 µM | IC50 (M059J; m059j): 3.77 µM | IC50 (MEL-HO; mel-ho): 0.85 µM | IC50 (NB1; nb1): 11.6 µM | IC50 (NCI-H1651; nci-h1651): 0.505 µM | IC50 (NCI-H1755; nci-h1755): 26 µM | IC50 (NCI-H2196; nci-h2196): 22.8 µM | IC50 (NCI-H522; nci-h522): 426 nM | IC50 (NCI-H719; nci-h719): 293 µM | IC50 (NCI-H748; nci-h748): 75.2 µM | IC50 (OVCAR-8; ovcar-8): 0.000476 µM | IC50 (PFSK-1; pfsk-1): 33.4 µM | IC50 (RL; rl): 2.27 mM | IC50 (S-117; s-117): 90.2 µM | IC50 (SCC-3; scc-3): 3.21 µM | IC50 (SCLC-21H; sclc-21h): 577 µM | IC50 (SF-295; sf-295): 21.4 nM | IC50 (SK-MEL-28; sk-mel-28): 1860 µM | IC50 (SK-OV-3; sk-ov-3): 4.88 µM | IC50 (SNU-423; snu-423): 0.867 µM | IC50 (SNU-449; snu-449): 0.389 µM | IC50 (SUP-T1; sup-t1): 0.000251 µM | IC50 (SW626; sw626): 1.41 µM | IC50 (TCC-SUP; tcc-sup): 15.9 µM | IC50 (647-V; 647-v): 1.73 µM | IC50 (ARH-77; arh-77): 0.105 µM | IC50 (THP-1; thp-1): 92.5 µM | IC50 (U-118-MG; u-118-mg): 65.7 µM | IC50 (YKG-1; ykg-1): 3.26 µM | IC50 (CHP-126; chp-126): 1.27 µM | IC50 (COLO-678; colo-678): 36.2 µM
